In patent US10906897B2, “Microbiocidal heterobicyclic derivatives” (priority 2015, dated 2021):

How the values were obtained:
[1] = tested on: Magnaporthe grisea (Pyricularia oryzae); test: microbe, parasite or virus in culture; assay type: cell-based; settings: read-out: control of Magnaporthe grisea
[2] = tested on: Botryotinia fuckeliana (Botrytis cinerea); test: Botryotinia fuckeliana (Botrytis cinerea) / liquid culture (Gray mould); assay type: cell-based; settings: growth inhibition photometrically 3-4 days after application, compared to untreated control
[3] = tested on: Magnaporthe grisea (Pyricularia oryzae); test: whole plant or invertebrate; assay type: in vivo; settings: foliar, read-out: control of Magnaporthe grisea
[4] = tested on: Monographella nivalis (Microdochium nivale); test: Monographella nivalis (Microdochium nivale) / liquid culture (foot rot cereals); assay type: cell-based; settings: 96 h, growth inhibition photometrically 4-5 days after application, compared to untreated control
[5] = tested on: Glomerella lagenarium (Colletotrichum lagenarium); test: Glomerella lagenarium (Colletotrichum lagenarium) / liquid culture (Anthracnose); assay type: cell-based; settings: Colletotrichum orbiculare, growth inhibition photometrically 3-4 days after application, compared to untreated control
Sclerotinia sclerotiorum = Sclerotinia sclerotiorum / liquid culture (cottony rot); settings: read-out: control of Sclerotinia sclerotiorum
Method: Sclerotinia sclerotiorum/Liquid Culture (Cottony Rot)
Mycelia fragments of a newly grown liquid culture of the fungus are directly mixed into 5 nutrient broth (Vogels broth). After placing a (DMSO) solution of test compound into a microtiter plate (96-well format) the nutrient broth containing the fungal material is added. The test plates are incubated at 24° C. and the inhibition of growth is determined photometrically 3-4 days after application.

Fusarium culmorum = test: microbe, parasite or virus in culture; assay type: cell-based; settings: read-out: control of Fusarium culmorum
Gaeumannomyces graminis = Gaeumannomyces graminis / liquid culture (Take-all of cereals); assay type: cell-based; settings: growth inhibition photometrically 4-5 days after application, compared to untreated control

SMILES | inhibition of growth at 60 ppm [1] [%] | inhibition of growth at 20 ppm [2] [%] | pest or weed control at 200 ppm [3] [%] | inhibition of growth at 20 ppm [4] [%] | inhibition of growth at 20 ppm [5] [%] | inhibition of growth at 20 ppm (Sclerotinia sclerotiorum) [%] | inhibition of growth at 20 ppm (Fusarium culmorum) [%] | inhibition of growth at 20 ppm (Gaeumannomyces graminis) [%] | melting point [°C]
Cc1ccc2c(C3=NC(C)(C)C(F)(F)c4cc(F)ccc43)cnn2c1C [Compound E-70, 1-(6,7-dimethylpyrazolo[1,5-a]pyridin-3-yl)-4,4,6-trifluoro-3,3-dimethyl-isoquinoline] | ≥ 80 | ≥ 80 | ≥ 50 | ≥ 80 | ≥ 80 | ≥ 80 | ≥ 80 |  | 
C#Cc1ccc2c(C3=NC(C)(C)C(F)(F)c4ccccc43)cnn2c1 [Compound E-90, 1-(6-ethynylpyrazolo[1,5-a]pyridin-3-yl)-4,4-difluoro-3,3-dimethyl-isoquinoline] | ≥ 80 |  |  | ≥ 80 | ≥ 80 |  |  | ≥ 80 | 145 to 147
Cc1ccn2c(C3=NC(C)(C)C(C)(C)c4c(F)cccc43)cnc2c1 [Compound E-31, 5-fluoro-3,3,4,4-tetramethyl-1-(7-methylimidazo[1,2-a]pyridin-3-yl)isoquinoline] |  | ≥ 80 | ≥ 50 |  | ≥ 80 |  | ≥ 80 |  | 
Cc1cccc2c(C3=NC(C)(C)C(=O)c4ccccc43)cnn12 [Compound E-67, 3,3-dimethyl-1-(7-methylpyrazolo[1,5-a]pyridin-3-yl)isoquinolin-4-one] | ≥ 80 | ≥ 80 |  | ≥ 80 | ≥ 80 | ≥ 80 | ≥ 80 |  | 110 to 112
Cc1cccc2c(C3=NC(C)(C)C(C)(C)c4c(F)cccc43)cnn12 [Compound E-59, 5-fluoro-3,3,4,4-tetramethyl-1-(7-methylpyrazolo[1,5-a]pyridin-3-yl)isoquinoline] |  | ≥ 80 | ≥ 50 | ≥ 80 | ≥ 80 |  | ≥ 80 |  | 134 to 136
Cc1cccn2c(C3=NC(C)(C)C(F)(F)c4ccccc43)cnc12 [Compound E-45, 4,4-difluoro-3,3-dimethyl-1-(8-methylimidazo[1,2-a]pyridin-3-yl)isoquinoline] |  | ≥ 80 | ≥ 50 | ≥ 80 | ≥ 80 |  | ≥ 80 |  | 
Cc1ccn2c(C3=NC(C)(C)C(F)(F)c4ccccc43)cnc2c1 [Compound E-55, 4,4-difluoro-3,3-dimethyl-1-(7-methylimidazo[1,2-a]pyridin-3-yl)isoquinoline] | ≥ 80 | ≥ 80 |  |  | ≥ 80 | ≥ 80 | ≥ 80 |  | 
CC1(C)N=C(c2cnc3c(F)cccn23)c2cccc(F)c2C1(C)C [Compound E-6, 5-fluoro-1-(8-fluoroimidazo[1,2-a]pyridin-3-yl)-3,3,4,4-tetramethyl-isoquinoline] |  | ≥ 80 | ≥ 50 | ≥ 80 | ≥ 80 |  | ≥ 80 | ≥ 80 | 156 to 157
Cc1c(Br)ccc2c(C3=NC(C)(C)C(F)(F)c4ccccc43)cnn12 [Compound E-79, 1-(6-bromo-7-methyl-pyrazolo[1,5-a]pyridin-3-yl)-4,4-difluoro-3,3-dimethyl-isoquinoline] | ≥ 80 | ≥ 80 |  |  | ≥ 80 | ≥ 80 | ≥ 80 | ≥ 80 | 180 to 182
COc1cccc2c(C3=NC(C)(C)C(F)(F)c4ccccc43)cnn12 [Compound E-92, 4,4-difluoro-1-(7-methoxypyrazolo[1,5-a]pyridin-3-yl)-3,3-dimethyl-isoquinoline] | ≥ 80 | ≥ 80 | ≥ 50 | ≥ 80 | ≥ 80 |  | ≥ 80 | ≥ 80 | 120 to 124
Cc1cccn2c(C3=NCC(C)(C)c4ccccc43)cnc12 [Compound E-51, 4,4-dimethyl-1-(8-methylimidazo[1,2-a]pyridin-3-yl)-3H-isoquinoline] | ≥ 80 | ≥ 80 |  |  |  | ≥ 80 |  |  | 
Cc1ccc2c(C3=NC(C)(C)C(C)(C)c4c(F)cccc43)cnn2c1C [Compound E-63, 1-(6,7-dimethylpyrazolo[1,5-a]pyridin-3-yl)-5-fluoro-3,3,4,4-tetramethyl-isoquinoline] | ≥ 80 | ≥ 80 | ≥ 50 |  | ≥ 80 |  | ≥ 80 | ≥ 80 | 175 to 176
CC1(C)N=C(c2cnc3c(Br)cccn23)c2cccc(F)c2C1(C)C [Compound E-8, 1-(8-bromoimidazo[1,2-a]pyridin-3-yl)-5-fluoro-3,3,4,4-tetramethyl-isoquinoline] |  | ≥ 80 | ≥ 50 |  | ≥ 80 |  | ≥ 80 |  | 
Cc1cccn2ncc(C3=NC4(CC4)C4(CC4)c4ccccc43)c12 [Compound E-95] | ≥ 80 | ≥ 80 | ≥ 50 |  | ≥ 80 |  |  |  | 
Cc1cccn2c(C3=NC(C)(C)C(C)(C)c4c(F)cccc43)cnc12 [Compound E-9, 5-fluoro-3,3,4,4-tetramethyl-1-(8-methylimidazo[1,2-a]pyridin-3-yl)isoquinoline] |  | ≥ 80 | ≥ 50 | ≥ 80 | ≥ 80 |  | ≥ 80 | ≥ 80 | 160 to 161
Cc1ccn2c(C3=NC(C)(C)C(C)(C)c4c(F)cccc43)cnc2c1C [Compound E-50, 1-(7,8-dimethylimidazo[1,2-a]pyridin-3-yl)-5-fluoro-3,3,4,4-tetramethyl-isoquinoline] | ≥ 80 | ≥ 80 |  |  | ≥ 80 | ≥ 80 | ≥ 80 |  | 185 to 186
CC1(C)N=C(c2cnn3cccc(F)c23)c2ccccc2C1(F)F [Compound E-89, 4,4-difluoro-1-(4-fluoropyrazolo[1,5-a]pyridin-3-yl)-3,3-dimethyl-isoquinoline] | ≥ 80 | ≥ 80 |  | ≥ 80 | ≥ 80 | ≥ 80 | ≥ 80 |  | 
Cc1cccn2c(C3=NC(C)(C)C(C)(C)c4ccccc43)cnc12 [Compound E-33, 3,3,4,4-tetramethyl-1-(8-methylimidazo[1,2-a]pyridin-3-yl)isoquinoline] |  | ≥ 80 | ≥ 50 | ≥ 80 | ≥ 80 |  | ≥ 80 |  | 
Cc1ccc2c(C3=NC(C)(C)C(F)(F)c4ccccc43)cnn2c1C [Compound E-65, 1-(6,7-dimethylpyrazolo[1,5-a]pyridin-3-yl)-4,4-difluoro-3,3-dimethyl-isoquinoline] | ≥ 80 | ≥ 80 |  | ≥ 80 | ≥ 80 | ≥ 80 | ≥ 80 | ≥ 80 | 
Cc1ccc2c(C3=NC(C)(C)C(=O)c4c(F)cccc43)cnn2c1C [Compound E-72, 1-(6,7-dimethylpyrazolo[1,5-a]pyridin-3-yl)-5-fluoro-3,3-dimethyl-isoquinolin-4-one] | ≥ 80 | ≥ 80 |  | ≥ 80 | ≥ 80 | ≥ 80 | ≥ 80 |  | 139 to 141
Cc1ccc2c(C3=NC4(CC4)C4(CC4)c4ccccc43)cnn2c1C [Compound E-94] | ≥ 80 |  | ≥ 50 | ≥ 80 | ≥ 80 |  | ≥ 80 | ≥ 80 | 
Cc1cccn2c(C3=NC4(CCC4)Cc4ccccc43)cnc12 [Compound E-52, 1-(8-methylimidazo[1,2-a]pyridin-3-yl)spiro[4H-isoquinoline-3,1′-cyclobutane]] | ≥ 80 | ≥ 80 |  | ≥ 80 | ≥ 80 | ≥ 80 |  |  | 
Cc1ccc2c(C3=NC(C)(C)C(=O)c4ccccc43)cnn2c1C [Compound E-64, 1-(6,7-dimethylpyrazolo[1,5-a]pyridin-3-yl)-3,3-dimethyl-isoquinolin-4-one] | ≥ 80 | ≥ 80 |  | ≥ 80 | ≥ 80 | ≥ 80 | ≥ 80 | ≥ 80 | 152 to 153
